Assay results published in publication PMC9257893 (The Onderstepoort Journal of Veterinary Research, 2022).
Where “and” joins values, the source holds several entries; their conditions need not be identical. Equal values may be shown once. Read-outs that look alike come from different tables or passages of the source.

How the values were obtained:
[1] = parameters: method as in Naidoo et al. [2007]; conditions: African White-backed Vulture; ref Naidoo et al. [2007]; cited from earlier work
[2] = Diclofenac plasma pharmacokinetics in chickens after IV dosing (HPLC, non-compartmental); conditions: for AUC(0-inf): AUCinf; for AUC(0-t): AUClast
Description: Birds still alive after 15 days were terminated by sedation and carbon dioxide asphyxiation.
Scheduled and unscheduled deaths were submitted to the University of Pretoria Paraclinical Department, section of veterinary pathology, for full gross and histological evaluation. Where needed, samples were collected in 10% buffered formalin, sectioned and stained via haematoxylin & eosin (H&E) technique and subjected to histopathologic examination.
Samples were analysed at the University of Pretoria, Veterinary, Paraclinical Department, toxicology and pharmacology laboratory. […] In short, 200 μL of plasma was placed in a 2-mL tube, followed sequentially by 400 μL of diethyl ether and 400 μL of potassium dihydrogen phosphate (0.3 M and pH 3.5). […] The separated organic phase was dried under nitrogen flow at 50 °C until dry.
For analysis, 30 μL was injected at […], and detection at 275 nm.
Concentration-time data generated following HPLC analysis was dose equalised to 1 mg/kg and evaluated by non-compartmental modelling (Kinetica 5.1, Thermo Scientific). The pharmacokinetic parameters maximum plasma concentration (Cmax) and time to maximum plasma concentration (Tmax) were read off the curve.
Area under the plasma curve extrapolated to infinity was calculated as: • AUCinf=AUClast+AUCextra, [Eqn 3] where AUCextra=Clast/β,Clast
is the last measured concentration and β is the terminal elimination portion of the curve gradient, on a natural logarithmic scale.
The half-life of elimination (T1/2) was calculated as: • T1/2=Ln 2/β. [Eqn 4]
Whole plasma clearance (Cl) was calculated as: • Cl=Dose/AUClast. [Eqn 5]
Volume of distribution (Vd) was calculated as: • Vd=Dose/CP0, [Eqn 6] where CP0 was the calculated concentration at time 0.
The mean residence time (MRT) was calculated as: • MRT=Dose Cp0/β. [Eqn 7]

[3] = pigeon; cited from earlier work
[4] = Gyps vultures; cited from earlier work
[5] = parameters: method as in Naidoo et al. [2007]; conditions: Cape Griffon Vulture; ref Naidoo et al. [2007]; cited from earlier work
[6] = in vivo, iv, 1 mg/kg, control group (diclofenac IV alone), birds alive, GM, dose corrected to 1 mg/kg
[7] = in vivo, iv, 1 mg/kg, control group (diclofenac IV alone), birds dead, GM, dose corrected to 1 mg/kg
[8] = in vivo, iv, test group (fluconazole + diclofenac IV), birds alive, GM, dose corrected to 1 mg/kg
[9] = test group (fluconazole + diclofenac IV), birds alive, GM, dose corrected to 1 mg/kg
[10] = test group (fluconazole + diclofenac IV), birds dead, GM, dose corrected to 1 mg/kg

## O=C(O)Cc1ccccc1Nc1c(Cl)cccc1Cl [diclofenac, diclofenac sodium]
[1]
  MRT: 26.10 h
  T1/2: 16.78 h
[2]; chicken (Gallus gallus domesticus), in vivo, iv, mean Cmax, mean value stated in text, chickens, IV diclofenac
  Cmax: 510 ng/mL
[2]; chicken (Gallus gallus domesticus), in vivo, iv, mean Tmax, mean value stated in text, chickens, IV diclofenac
  Tmax: 0.38 h
[2]; control group (diclofenac IV alone), birds alive, GM
  Lz (terminal elimination phase rate constant): 0.88 h⁻¹
[2]; control group (diclofenac IV alone), birds alive, GM, dose corrected to 1 mg/kg
  AUMClast: 0.35 μg/mL*(h)^2
[2]; control group (diclofenac IV alone), birds dead, GM
  Lz (terminal elimination phase rate constant): 0.34 h⁻¹
[2]; control group (diclofenac IV alone), birds dead, GM, dose corrected to 1 mg/kg
  AUMClast: 0.27 μg/mL*(h)^2
[2]; control group birds receiving the two highest doses
  T1/2 of individual birds: 7.01 h and 2.75 h
[2]; [6]
  AUC(0-inf): 570 ng·h/mL
  AUC(0-t): 460 ng·h/mL
[2]; [7]
  AUC(0-inf): 760 ng·h/mL
  AUC(0-t): 310 ng·h/mL
[2]; in vivo, iv, 1 mg/kg, Cmax, control group (diclofenac IV alone), birds alive, GM, dose corrected to 1 mg/kg
  Cmax: 520 ng/mL
[2]; in vivo, iv, 1 mg/kg, Cmax, control group (diclofenac IV alone), birds dead, GM, dose corrected to 1 mg/kg
  Cmax: 240 ng/mL
[2]; [8]
  AUC(0-inf): 550 ng·h/mL
  AUC(0-t): 420 ng·h/mL
[2]; in vivo, iv, test group (fluconazole + diclofenac IV), birds dead, GM, dose corrected to 1 mg/kg
  AUC(0-inf): 1130 ng·h/mL
[2]; in vivo, iv, geometric mean, control group, all birds
  AUC(0-t): 400 ng·h/mL
[2]; in vivo, iv, geometric mean, test group (CYP inhibitor), all birds
  AUC(0-t): 500 ng·h/mL
[2]; in vivo, iv, Cl, control group (diclofenac IV alone), birds alive, GM
  clearance: 29 mL/min/kg
[2]; in vivo, iv, Cl, control group (diclofenac IV alone), birds dead, GM
  clearance: 22 mL/min/kg
[2]; in vivo, iv, Cl, test group (fluconazole + diclofenac IV), birds alive, GM
  clearance: 30.5 mL/min/kg
[2]; in vivo, iv, Cl, test group (fluconazole + diclofenac IV), birds dead, GM
  clearance: 14.7 mL/min/kg
[2]; in vivo, iv, Cmax, geometric mean, control group, all birds
  Cmax: 410 ng/mL
[2]; in vivo, iv, Cmax, geometric mean, test group (CYP inhibitor), all birds
  Cmax: 610 ng/mL
[2]; in vivo, iv, Cmax, test group (fluconazole + diclofenac IV), birds dead, GM, dose corrected to 1 mg/kg
  Cmax: 1240 ng/mL
[2]; in vivo, iv, control group (diclofenac IV alone), birds alive, GM
  MRT: 1.17 h
[2]; in vivo, iv, control group (diclofenac IV alone), birds dead, GM
  MRT: 3.14 h
[2]; in vivo, iv, test group (fluconazole + diclofenac IV), birds alive, GM
  MRT: 1.34 h
[2]; in vivo, iv, test group (fluconazole + diclofenac IV), birds dead, GM
  MRT: 1.33 h
[2]; in vivo, iv, T1/2, control group (diclofenac IV alone), birds alive, GM
  half-life: 0.79 h
[2]; in vivo, iv, T1/2, test group (fluconazole + diclofenac IV), birds alive, GM
  half-life: 0.85 h
[2]; in vivo, iv, T1/2, test group (fluconazole + diclofenac IV), birds dead, GM
  half-life: 0.96 h
[2]; in vivo, iv, Tmax, control group (diclofenac IV alone), birds alive, GM
  Tmax: 0.4 h
[2]; in vivo, iv, Tmax, control group (diclofenac IV alone), birds dead, GM
  Tmax: 0.4 h
[2]; in vivo, iv, Tmax, test group (fluconazole + diclofenac IV), birds alive, GM
  Tmax: 0.35 h
[2]; in vivo, iv, Tmax, test group (fluconazole + diclofenac IV), birds dead, GM
  Tmax: 0.25 h
[2]; in vivo, iv, Vss, control group (diclofenac IV alone), birds alive, GM
  Vd: 2.04 L/kg
[2]; in vivo, iv, Vss, control group (diclofenac IV alone), birds dead, GM
  Vd: 4.16 L/kg
[2]; in vivo, iv, Vss, test group (fluconazole + diclofenac IV), birds alive, GM
  Vd: 2.44 L/kg
[2]; in vivo, iv, Vss, test group (fluconazole + diclofenac IV), birds dead, GM
  Vd: 1.17 L/kg
[2]; in vivo, iv, Vz, control group (diclofenac IV alone), birds alive, GM
  Vd: 1.98 L/kg
[2]; in vivo, iv, Vz, control group (diclofenac IV alone), birds dead, GM
  Vd: 3.88 L/kg
[2]; in vivo, iv, Vz, test group (fluconazole + diclofenac IV), birds alive, GM
  Vd: 2.24 L/kg
[2]; in vivo, iv, Vz, test group (fluconazole + diclofenac IV), birds dead, GM
  Vd: 1.23 L/kg
[2]; in vivo, iv, clearance, geometric mean, control group, all birds
  clearance: 26.5 mL/min/kg
[2]; in vivo, iv, clearance, geometric mean, test group (CYP inhibitor), all birds
  clearance: 25.3 mL/min/kg
[2]; test group (fluconazole + diclofenac IV), birds alive, GM
  Lz (terminal elimination phase rate constant): 0.82 h⁻¹
[2]; [9]
  AUMClast: 0.34 μg/mL*(h)^2
  Cmax: 480 ng/mL
[2]; test group (fluconazole + diclofenac IV), birds dead, GM
  Lz (terminal elimination phase rate constant): 0.72 h⁻¹
[2]; [10]
  AUClast: 870 ng·h/mL
  AUMClast: 0.63 μg/mL*(h)^2
[3]
  T1/2: < 7 h
[4]
  T1/2: > 7 h
[5]
  MRT: 15.11 h
  T1/2: 12.24 h
